PMC7021728, “Structure of the agonist 12–HHT in its BLT2 receptor-bound state” (Scientific Reports, 2020)
Substitutions are numbered along the chain they refer to. pKd: −log10 of the molar value.

Assays:
BLT1 = biological target: BLT1; parameters: method as in PMID 10934230; settings: membrane fractions, BLT1 transfected HEK 293 cells; in cellulo; read-out: equilibrium dissociation constant (Kd); cited from earlier work
[1] = tested on: BLT1 (residue R156 in BLT1 mutated to alanine); parameters: method as in PMID 17237498; settings: in words; cited from earlier work
purified BLT2 receptor = biological target: purified BLT2 receptor; parameters: method as in PMID 21688157; settings: purified BLT2 associated with amphipols in solution, in vitro; cited from earlier work
BLT2 = biological target: BLT2; parameters: method as in PMID 10934230; settings: cited from earlier work
BLT2 S174^ECL2A = biological target: T1, BLT2 S174^ECL2A (Homo sapiens, UniProt Q9NPC1, S174A); test: Gi protein activation catalyzed by BLT2 mutant; format: biochemical; settings: S174 mutation compared to wild-type, in words
T1 construct: made in house
T1 sequence (Q9NPC1 1-358 S174A): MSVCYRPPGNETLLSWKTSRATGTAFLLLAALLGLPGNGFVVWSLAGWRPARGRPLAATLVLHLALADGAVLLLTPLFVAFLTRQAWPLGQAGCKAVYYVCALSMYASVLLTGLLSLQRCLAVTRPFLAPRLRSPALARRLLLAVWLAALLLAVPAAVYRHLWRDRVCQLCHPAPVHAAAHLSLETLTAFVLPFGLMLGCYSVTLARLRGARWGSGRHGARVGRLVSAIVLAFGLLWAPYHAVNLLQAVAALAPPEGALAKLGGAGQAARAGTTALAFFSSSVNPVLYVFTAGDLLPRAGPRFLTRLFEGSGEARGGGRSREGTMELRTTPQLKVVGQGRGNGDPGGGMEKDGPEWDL
Description: (§1) All mutations were introduced in the wild-type BLT2 receptor by PCR-mediated mutagenesis using the QuickChange multisite-directed mutagenesis kit (Stratagene) and the wild-type BLT2 construct as a template. Mutations were confirmed by nucleotide sequencing.
(§2) Gαi2 and Gβ1γ2 were prepared as previously described. Briefly, agonist-dependent functional coupling of the purified receptor to Gαi2β1γ2 was assessed through the rate of GTPγS binding at increasing agonist concentrations determined by monitoring the relative increase in the intrinsic fluorescence ( λexcitation=300nm , λemission=345nm ) of Gαi2 (200 nM of purified G protein) in the presence of BLT2 (20 nM) in buffer containing 10 mM MOPS, pH 7.2, 130 mM NaCl, and 2 mM MgCl2 at 15 °C after the addition of 10 μM GTPγS. The data were normalized to the fluorescence maximum obtained in the presence of saturating concentrations in 12–HHT (10 μM).

BLT2 R270^7.35A = biological target: T2, BLT2 R270^7.35A (Homo sapiens, UniProt Q9NPC1, R270A); test: Gi protein activation catalyzed by BLT2 mutant; format: biochemical; settings: R270 mutation compared to wild-type, in words
T2 construct: made in house
T2 sequence (Q9NPC1 1-358 R270A): T1 sequence (Q9NPC1 1-358 S174A) with A174S, R270A
Description: as §1, §2

For `CCCCC/C=C\C[C@@H](O)/C=C/C=C/C=C\[C@@H](O)CCCC(=O)O` [LTB4, leukotriene B4], the pKd (BLT1) is listed as roughly 9.00, the “effect of the mutation on LTB4 binding” value [1] is listed as “complete loss of LTB4 binding” and the pKd (purified BLT2 receptor) is listed as roughly 6.70. For the same compound, the pKd (BLT2; membrane fractions, BLT2 transfected HEK 293 cells, in cellulo, read-out: equilibrium dissociation constant (Kd)) was roughly 7.70, the “Kd weaker in the case of BLT2 compared to BLT1” value (BLT2; transfected HEK 293 cells) was 20 fold and the “effect of the mutation on ligand binding” value (BLT2 S174^ECL2A) was “does not affect the binding”. The “effect of the mutation on ligand binding” value (BLT2 R270^7.35A) was “does not affect the binding”.
